{"source": "paper PMC6694155", "about": "“PTPσ inhibitors promote hematopoietic stem cell regeneration” (Nature Communications, 2019)", "key": {"pERK1/2 in BM KSL cells": {"tested_on": "pERK1/2 in BM KSL cells", "assay": "phospho-ERK1/2 immunofluorescence microscopy", "type": "cell-based, mouse", "settings": "irradiated BM KSL cells", "procedure": "Lab-Tek chamber slides were coated with fibronectin (25 µg/mL, Millipore Sigma #341635). Sorted BM KSL cells (1 × 10^4) were resuspended in 200 µL TSF media and added to each of the pre-coated wells and incubated overnight (37 °C/5% CO2). The next day, cells were serum starved for 30 min and then stimulated with DJ001 (1 µg/mL), EHT1864 (6 µg/mL), or equal volumes of DMSO for 5 min. Cells were washed once with PBS and fixed with 4% PFA for 10 min. Cells were permeabilized with 0.5% Triton/PBS (PRM) for 30 min and then blocked with 5% fetal bovine serum (FBS)/PRM for 1 h. The slide was then incubated with a phospho-ERK1/2 primary antibody (Cell Signaling, #4377, 1:200) for 1 h. The wells were washed three times and then incubated with a donkey anti-rabbit Alexa Fluor 488 secondary antibody (Thermo Fischer, #A21206, 1:200) at a 1:200 concentration for 1 h. The slide was washed three times and mounted with ProLong Gold Antifade Reagent with DAPI. Cells were imaged using a ×63 objective on a Zeiss Axio Imager M2 widefield fluorescence microscope with all microscope settings derived from imaging a secondary only control. Data were analyzed using Fiji (ImageJ). Briefly, the cell outline was identified by threshold levels and the mean fluorescence intensity within the cell area was quantified."}, "[1]": {"tested_on": "DsRed+ BM sca-1+lin− cells in irradiated C57BL/6 mice", "assay": "Homing study", "type": "in vivo, mouse", "procedure": "Sorted BM sca-1^+lin^− cells (100,000) from DsRed^+ mice were transplanted into lethally irradiated (950 cGy) recipient C57BL/6 mice followed by subcutaneous treatment of 5 mg/kg DJ001 or vehicle × 1 dose. At 18 h post transplantation, BM cells were collected from the recipient mice and were analyzed for percentages of DsRed^+ cells in the BM[17]."}, "[2]": {"molecular_target": "T1, PTPσ-p250GAP complex in BM KSL cells (Mus musculus, UniProt B0V2N1)", "T1 construct": "endogenous in cells; host or cells: primary bone marrow KSL (c-kit+ Sca-1+ lin-) cells of C57BL/6 mice", "T1 sequence (B0V2N1 30-1907, one chain of several)": "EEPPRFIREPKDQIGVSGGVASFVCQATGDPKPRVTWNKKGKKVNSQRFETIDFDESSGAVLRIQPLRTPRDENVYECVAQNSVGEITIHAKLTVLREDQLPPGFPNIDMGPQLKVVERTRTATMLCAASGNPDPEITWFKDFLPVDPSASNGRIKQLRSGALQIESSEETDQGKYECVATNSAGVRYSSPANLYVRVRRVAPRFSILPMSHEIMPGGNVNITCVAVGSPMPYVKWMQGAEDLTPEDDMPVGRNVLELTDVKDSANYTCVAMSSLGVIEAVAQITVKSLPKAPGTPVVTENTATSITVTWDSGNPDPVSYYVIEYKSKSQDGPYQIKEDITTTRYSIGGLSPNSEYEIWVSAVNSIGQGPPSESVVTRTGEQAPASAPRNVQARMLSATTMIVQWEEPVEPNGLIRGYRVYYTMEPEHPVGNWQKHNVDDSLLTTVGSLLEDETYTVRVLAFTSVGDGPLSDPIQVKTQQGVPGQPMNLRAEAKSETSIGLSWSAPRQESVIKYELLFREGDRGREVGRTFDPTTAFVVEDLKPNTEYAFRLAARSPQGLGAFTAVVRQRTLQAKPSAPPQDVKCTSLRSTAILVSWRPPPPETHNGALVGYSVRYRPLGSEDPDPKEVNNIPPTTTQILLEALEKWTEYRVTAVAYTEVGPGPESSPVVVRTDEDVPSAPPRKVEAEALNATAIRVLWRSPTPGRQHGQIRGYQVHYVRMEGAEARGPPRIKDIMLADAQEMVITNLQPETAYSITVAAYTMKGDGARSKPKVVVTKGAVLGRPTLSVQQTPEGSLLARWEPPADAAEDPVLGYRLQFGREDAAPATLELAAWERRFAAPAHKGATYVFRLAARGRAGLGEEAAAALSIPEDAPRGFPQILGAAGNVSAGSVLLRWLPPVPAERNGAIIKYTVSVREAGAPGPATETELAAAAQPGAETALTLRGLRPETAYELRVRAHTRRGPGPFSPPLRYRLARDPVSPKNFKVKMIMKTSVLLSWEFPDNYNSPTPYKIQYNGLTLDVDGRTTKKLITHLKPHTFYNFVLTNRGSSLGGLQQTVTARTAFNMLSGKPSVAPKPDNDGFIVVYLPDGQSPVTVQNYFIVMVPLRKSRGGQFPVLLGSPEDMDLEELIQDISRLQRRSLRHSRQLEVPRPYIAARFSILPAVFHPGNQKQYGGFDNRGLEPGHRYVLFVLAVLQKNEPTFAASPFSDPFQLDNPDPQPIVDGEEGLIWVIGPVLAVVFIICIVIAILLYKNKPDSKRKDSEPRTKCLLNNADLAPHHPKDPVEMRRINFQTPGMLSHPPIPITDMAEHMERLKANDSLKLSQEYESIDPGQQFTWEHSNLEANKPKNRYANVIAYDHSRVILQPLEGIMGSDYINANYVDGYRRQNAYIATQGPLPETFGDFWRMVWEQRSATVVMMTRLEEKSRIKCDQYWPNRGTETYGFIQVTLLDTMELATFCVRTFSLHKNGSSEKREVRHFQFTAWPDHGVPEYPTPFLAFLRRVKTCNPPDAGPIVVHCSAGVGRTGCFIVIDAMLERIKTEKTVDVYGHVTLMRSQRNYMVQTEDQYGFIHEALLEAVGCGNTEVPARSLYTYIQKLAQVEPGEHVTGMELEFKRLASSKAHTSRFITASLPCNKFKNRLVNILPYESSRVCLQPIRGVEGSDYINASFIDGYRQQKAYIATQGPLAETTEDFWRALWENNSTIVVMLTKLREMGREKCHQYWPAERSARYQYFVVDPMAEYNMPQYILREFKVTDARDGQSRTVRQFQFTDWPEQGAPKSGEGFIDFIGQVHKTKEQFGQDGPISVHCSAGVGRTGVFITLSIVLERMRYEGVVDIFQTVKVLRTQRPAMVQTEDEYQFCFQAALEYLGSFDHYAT", "assay": "Proximity ligation assay", "type": "cell-based", "settings": "1 μg/mL DJ001, 1 h", "procedure": "A PLA assay was performed by using the Duolink In Situ Red Starter Kit (Millipore Sigma) to detect the binding between PTPσ and p250GAP proteins. BM KSL cells from C57BL/6 mice were sorted by fluorescence-activated cell sorting and then plated onto fibronectin pre-coated chamber slides overnight. The next day, cells were treated with 1 μg/mL DJ001 or vehicle (equal volume of DMSO) for 1 h at 37 °C. Cells were then fixed with 4% paraformaldehyde (PFA) for 20 min. The slides were blocked with Duolink blocking solution and incubated with rabbit anti-ARHGAP32 polyclonal antibody (Bioss Antibodies, #bs-9296R, 1:50 dilution) and goat anti-PTPσ (K-19) polyclonal antibody (Santa Cruz Biotechnology, #sc-10873, 1:50) overnight at 4 °C. Cells were imaged using a Leica SP8 Confocal Microscope equipped with a ×63 objective lens. A white light laser set to 580 nm was used to excite dsRed and a UV laser was used to excite 4′,6-diamidino-2-phenylindole (DAPI). Analysis was performed using the spots detection function in IMARIS 9.0.2 (Bitplane)."}, "panel of 21 Phosphatases": {"tested_on": "panel of 21 Phosphatases", "assay": "PhosphataseProfiler screen, whole panel", "type": "biochemical", "settings": "DJ001 at 10 μM and 1 μM", "procedure": "Compound DJ001 was evaluated in a PhosphataseProfiler™ screen at 10 μM and 1 μM (2.7 μg/mL and 0.27 μg/mL) concentrations at Eurofins Pharma Discovery Services UK (Study number UK022-0004033) against a panel of 21 Phosphatases. In each experiment, the respective reference antagonist/agonist was tested directly with DJ001 and the data were compared with historical values determined at Eurofins. DJ001 compound inhibition was calculated as percentage inhibition of the enzymatic activity compared with control."}}, "note": "Several values for one entry are separate records, joined by “and”; a condition that tells them apart may be missing. Equal entries are not always repeated.", "data": [{"compound": "O=C(/C=C\\Nc1cccc([N+](=O)[O-])c1)c1ccccc1", "note": "[DJ001, (Z)-3-((3-nitrophenyl)amino)-1-phenylprop-2-en-1-one]", "values": [{"measurement": "ERK1/2 phosphorylation", "setting": "pERK1/2 in BM KSL cells", "value": "induced ERK1/2 phosphorylation"}, {"measurement": "homing of transplanted BM sca-1+lin− cells", "setting": "[1]; 18 h, irradiated C57BL/6 mice", "value": "no effect on homing"}, {"measurement": "percentage of donor DsRed+ cells in the BM, per mouse (Supplementary Figure 8b)", "setting": "[1]; 18 hours, 5 mg/kg DJ001 subcutaneously, 5 mg/kg", "value": "0.19% and 0.183% and 0.207%"}, {"measurement": "co-localization of PTPσ and p250GAP", "setting": "[2]", "value": "significantly decreased co-localization"}, {"measurement": "inhibitory activity against 20 other phosphatases", "setting": "panel of 21 Phosphatases", "value": "no inhibitory activity"}]}]}
